± gives the expanded uncertainty stated by the source.
Conditions: 283.15 K, Liquid, Vibrating tube method

CCCCCC(=O)OCC(COC(=O)CCCCC)(COC(=O)CCCCC)COC(=O)CCCCC [pentaerythritol tetrahexanoate]
mass density (1506.3 kPa): 1004.9 ± 1.2 kg/m3
mass density (1520.4 kPa): 1005.1 ± 1.2 kg/m3
mass density (1534.6 kPa): 1005.1 ± 1.2 kg/m3
mass density (1551.6 kPa): 1005.1 ± 1.2 kg/m3
mass density (1566 kPa): 1005.2 ± 1.2 kg/m3
mass density (1580.3 kPa): 1005 ± 1.2 kg/m3
mass density (1737.7 kPa): 1005.1 ± 1.2 kg/m3
mass density (1752.5 kPa): 1005.1 ± 1.2 kg/m3
mass density (1815.1 kPa): 1005.3 ± 1.2 kg/m3
mass density (1862 kPa): 1005.2 ± 1.2 kg/m3
mass density (1876.2 kPa): 1005.2 ± 1.2 kg/m3
mass density (1889.8 kPa): 1005.2 ± 1.2 kg/m3
mass density (1905.4 kPa): 1005.1 ± 1.2 kg/m3
mass density (1918.9 kPa): 1005.2 ± 1.2 kg/m3
mass density (1932.5 kPa): 1005.2 ± 1.2 kg/m3
mass density (1949.3 kPa): 1005.2 ± 1.2 kg/m3
mass density (1963.5 kPa): 1005.2 ± 1.2 kg/m3
mass density (1978.6 kPa): 1005.2 ± 1.2 kg/m3
mass density (1993.5 kPa): 1005.3 ± 1.2 kg/m3
mass density (2005.3 kPa): 1005.3 ± 1.2 kg/m3
mass density (2024.6 kPa): 1005.3 ± 1.2 kg/m3
mass density (2039 kPa): 1005.3 ± 1.2 kg/m3
mass density (2053.8 kPa): 1005.3 ± 1.2 kg/m3
mass density (2068.7 kPa): 1005.3 ± 1.2 kg/m3
mass density (2086.4 kPa): 1005.3 ± 1.2 kg/m3
mass density (2102 kPa): 1005.4 ± 1.2 kg/m3
mass density (2118 kPa): 1005.4 ± 1.2 kg/m3
mass density (2136.7 kPa): 1005.4 ± 1.2 kg/m3
mass density (2153 kPa): 1005.4 ± 1.2 kg/m3
mass density (2165.7 kPa): 1005.4 ± 1.2 kg/m3
mass density (2185.6 kPa): 1005.4 ± 1.2 kg/m3
mass density (2205.4 kPa): 1005.4 ± 1.2 kg/m3
mass density (2292.8 kPa): 1005.5 ± 1.2 kg/m3
mass density (2303.8 kPa): 1005.5 ± 1.2 kg/m3
mass density (2314.9 kPa): 1005.4 ± 1.2 kg/m3
mass density (2328.2 kPa): 1005.4 ± 1.2 kg/m3
mass density (2339.2 kPa): 1005.5 ± 1.2 kg/m3
mass density (2350.1 kPa): 1005.5 ± 1.2 kg/m3
mass density (2363.3 kPa): 1005.4 ± 1.2 kg/m3
mass density (2374.2 kPa): 1005.4 ± 1.2 kg/m3
mass density (2385.1 kPa): 1005.4 ± 1.2 kg/m3
mass density (2398.1 kPa): 1005.5 ± 1.2 kg/m3
mass density (2409.2 kPa): 1005.6 ± 1.2 kg/m3
mass density (2420.2 kPa): 1005.6 ± 1.2 kg/m3
mass density (2433.2 kPa): 1005.5 ± 1.2 kg/m3
mass density (2443.9 kPa): 1005.6 ± 1.2 kg/m3
mass density (2455 kPa): 1005.6 ± 1.2 kg/m3
mass density (2468.4 kPa): 1005.6 ± 1.2 kg/m3
mass density (2479.7 kPa): 1005.6 ± 1.2 kg/m3
mass density (2490.8 kPa): 1005.5 ± 1.2 kg/m3
mass density (2502 kPa): 1005.6 ± 1.2 kg/m3
mass density (2515.9 kPa): 1005.6 ± 1.2 kg/m3
mass density (2526.8 kPa): 1005.5 ± 1.2 kg/m3
mass density (2552.3 kPa): 1005.6 ± 1.2 kg/m3
mass density (2576.1 kPa): 1005.6 ± 1.2 kg/m3
mass density (2587.9 kPa): 1005.7 ± 1.2 kg/m3
mass density (2601.9 kPa): 1005.7 ± 1.2 kg/m3
mass density (2613.9 kPa): 1005.7 ± 1.2 kg/m3
mass density (2626 kPa): 1005.6 ± 1.2 kg/m3
mass density (2640.3 kPa): 1005.7 ± 1.2 kg/m3
mass density (2652.7 kPa): 1005.6 ± 1.2 kg/m3
mass density (2664.9 kPa): 1005.8 ± 1.2 kg/m3
mass density (2679.3 kPa): 1005.7 ± 1.2 kg/m3
mass density (2692.1 kPa): 1005.6 ± 1.2 kg/m3
mass density (2704.8 kPa): 1005.7 ± 1.2 kg/m3
mass density (2717.4 kPa): 1005.8 ± 1.2 kg/m3
mass density (2732.7 kPa): 1005.8 ± 1.2 kg/m3
mass density (2745.7 kPa): 1005.8 ± 1.2 kg/m3
mass density (2756.3 kPa): 1005.7 ± 1.2 kg/m3
mass density (2768.9 kPa): 1005.7 ± 1.2 kg/m3
mass density (2784.7 kPa): 1005.7 ± 1.2 kg/m3
mass density (2800 kPa): 1005.8 ± 1.2 kg/m3
mass density (2826.3 kPa): 1005.9 ± 1.2 kg/m3
mass density (2841.9 kPa): 1005.7 ± 1.2 kg/m3
mass density (2869.2 kPa): 1005.8 ± 1.2 kg/m3
mass density (2883.2 kPa): 1005.8 ± 1.2 kg/m3
mass density (2897.6 kPa): 1005.8 ± 1.2 kg/m3
mass density (2911.3 kPa): 1005.7 ± 1.2 kg/m3
mass density (2927.9 kPa): 1005.8 ± 1.2 kg/m3
mass density (2942 kPa): 1005.9 ± 1.2 kg/m3
mass density (2956 kPa): 1005.9 ± 1.2 kg/m3
mass density (2973 kPa): 1005.9 ± 1.2 kg/m3
mass density (2987.2 kPa): 1005.9 ± 1.2 kg/m3
mass density (3001.4 kPa): 1005.9 ± 1.2 kg/m3
mass density (3015.3 kPa): 1005.8 ± 1.2 kg/m3
mass density (3032.1 kPa): 1005.8 ± 1.2 kg/m3
mass density (3046.9 kPa): 1005.9 ± 1.2 kg/m3
mass density (3061.4 kPa): 1005.9 ± 1.2 kg/m3
mass density (3079.7 kPa): 1005.7 ± 1.2 kg/m3
mass density (3094.3 kPa): 1006 ± 1.2 kg/m3
mass density (3108.7 kPa): 1005.9 ± 1.2 kg/m3
mass density (3123.8 kPa): 1006 ± 1.2 kg/m3
mass density (3141.8 kPa): 1006 ± 1.2 kg/m3
mass density (3157 kPa): 1006 ± 1.2 kg/m3
mass density (3172.3 kPa): 1006 ± 1.2 kg/m3
mass density (3187.9 kPa): 1005.9 ± 1.2 kg/m3
mass density (3203.2 kPa): 1006 ± 1.2 kg/m3
mass density (3221.5 kPa): 1005.9 ± 1.2 kg/m3
mass density (3236.8 kPa): 1006.1 ± 1.2 kg/m3
mass density (3337.6 kPa): 1006.1 ± 1.2 kg/m3
mass density (3353.6 kPa): 1006.1 ± 1.2 kg/m3
mass density (3404.7 kPa): 1006.2 ± 1.2 kg/m3
mass density (3956.5 kPa): 1006.4 ± 1.2 kg/m3
mass density (3974.5 kPa): 1006.6 ± 1.2 kg/m3
mass density (3996.3 kPa): 1006.6 ± 1.2 kg/m3
mass density (4014.4 kPa): 1006.5 ± 1.2 kg/m3
mass density (4032.7 kPa): 1006.5 ± 1.2 kg/m3
mass density (4054 kPa): 1006.5 ± 1.2 kg/m3
mass density (4072 kPa): 1006.5 ± 1.2 kg/m3
mass density (4090 kPa): 1006.6 ± 1.2 kg/m3
mass density (4111.5 kPa): 1006.5 ± 1.2 kg/m3
mass density (4129.7 kPa): 1006.7 ± 1.2 kg/m3
mass density (4147.7 kPa): 1006.6 ± 1.2 kg/m3
mass density (4165.7 kPa): 1006.5 ± 1.2 kg/m3
mass density (4186.7 kPa): 1006.6 ± 1.2 kg/m3
mass density (4204.2 kPa): 1006.6 ± 1.2 kg/m3
mass density (4221.8 kPa): 1006.7 ± 1.2 kg/m3
mass density (4239.5 kPa): 1006.7 ± 1.2 kg/m3
mass density (4260.6 kPa): 1006.6 ± 1.2 kg/m3
mass density (4277.8 kPa): 1006.6 ± 1.2 kg/m3
mass density (4294.9 kPa): 1006.7 ± 1.2 kg/m3
mass density (4314.8 kPa): 1006.6 ± 1.2 kg/m3
mass density (4331.6 kPa): 1006.6 ± 1.2 kg/m3
mass density (4348.2 kPa): 1006.7 ± 1.2 kg/m3
mass density (4364.2 kPa): 1006.7 ± 1.2 kg/m3
mass density (4383.5 kPa): 1006.7 ± 1.2 kg/m3
mass density (4399.6 kPa): 1006.7 ± 1.2 kg/m3
mass density (4414.7 kPa): 1006.7 ± 1.2 kg/m3
mass density (4432.7 kPa): 1006.6 ± 1.2 kg/m3
mass density (4448.3 kPa): 1006.8 ± 1.2 kg/m3
mass density (4462.4 kPa): 1006.6 ± 1.2 kg/m3
mass density (4476.2 kPa): 1006.7 ± 1.2 kg/m3
mass density (4489.5 kPa): 1006.7 ± 1.2 kg/m3
mass density (4504.9 kPa): 1006.8 ± 1.2 kg/m3
mass density (4517.6 kPa): 1006.8 ± 1.2 kg/m3
mass density (4530.4 kPa): 1006.7 ± 1.2 kg/m3
mass density (4542.7 kPa): 1006.7 ± 1.2 kg/m3
mass density (4556.9 kPa): 1006.8 ± 1.2 kg/m3
mass density (4568.3 kPa): 1006.8 ± 1.2 kg/m3
mass density (4579.5 kPa): 1006.7 ± 1.2 kg/m3
mass density (4590.6 kPa): 1006.8 ± 1.2 kg/m3
mass density (4604.1 kPa): 1006.8 ± 1.2 kg/m3
mass density (4613.3 kPa): 1006.9 ± 1.2 kg/m3
mass density (4626.1 kPa): 1006.8 ± 1.2 kg/m3

— the NIST ThermoML archive (doi:10.1021/je060271a)
